Here are results for one compound from PMC11311998, “AR71, Histamine H3 Receptor Ligand—In Vitro and In Vivo Evaluation (Anti-Inflammatory Activity, Metabolic Stability, Toxicity, and Analgesic Action)” (International Journal of Molecular Sciences, 2024).

Each structure is given as a SMILES string. Where “and” joins values, the source holds several entries; their conditions need not be identical. Equal entries are not always repeated.

The nature of data set [1]: metabolic stability in human liver microsomes. Format: in vitro ADME. The protocol:
The metabolic stability of AR71 was assessed in vitro using human liver microsomes (HLMs). […] After 120 min of incubation with HLMs, 85% of AR71 remained unchanged. However, during this time, six metabolites were formed (Figure S4a–d, Supplementary Materials). The metabolite M1 was formed in the highest amount (5.5%). The others were formed in amounts of 0.6% to 1.2%. Based on an analysis of their molar masses, and with the help of MetaSite 6.0.1, a type of metabolic transformation was proposed. The identified in vitro AR71 metabolic pathways and the most probable site of metabolism predicted by MetaSite 6.0.1 are shown in Table 1.
Metabolic stability was assessed in human liver microsomes (HLMs, Sigma-Aldrich, St. Louis, MO, USA), as previously described. After 120 min of incubation with HLMs, liquid chromatography–mass spectrometry (Waters ACQUITY TQD system with the TQ Detector, Waters, Milford, MA, USA) was used to identify the formed metabolites. MetaSite 6.0.1 software (Molecular Discovery Ltd., Hertfordshire, U.K.) was used to predict the most probable sites of metabolism in silico.
Background: Liver microsomes are a subcellular fraction often used to study metabolism.

For data set [2], the system named is human astrocytes. The experiment in a line: viability of human astrocytes (MTT assay). The format is cell-based. The note with it: for IC50: Homo sapiens, Astrocyte. The protocol:
We investigated the effect of AR71 in a wide range of concentrations (0.78–100 μM) on the viability of human astrocyte cell lines after 2, 24, 48, and 72 h of incubation (Figure 6). Prolonged incubation of human astrocytes with AR71 caused a dose-dependent decrease in cell viability.
The astrocyte cell line from the human cerebral cortex was purchased from ScienCell Research Laboratories (San Diego, CA, USA; Cat no. 1800) and maintained according to the protocol recommended by the company (the ScienCell Research Laboratories’ protocol).
The colorimetric MTT assay using 3-(4,5-dimethylthiazol-2-yl)-2,5-diphenyltetrazolium bromide (MTT; Sigma-Aldrich Chemical Co. Ltd., Saint Louis, MO, USA) was used for evaluation of astrocytes viability. The experiment was carried out following the procedure described in detail previously. Astrocytes were seeded onto 96-well plates at a final density of 10 × 10^3 cells/well. Following 24 h of culture, the cells were treated with AR71 (0.78–100 μM) for […], 24, 48, or 72 h. After the respective incubation periods, MTT solution was added to the cell culture for another four hours. Absorbance was measured at 570 nm using a BioTek EL 800× microplate reader (BioTek, Winooski, VT, USA), with the value directly proportional to the number of viable cells. Cell viability was calculated by the following formula: Viability [%] = (A/AC) × 100%, where A represents the absorbance of the investigated sample and AC represents the absorbance of the negative control (untreated cells). The positive control (vehicle) was 0.1% DMSO.
On the technique in general: Tetrazolium assays rely on reduction of a dye to a coloured formazan, in cell work by metabolically active cells.

In data set [3] the test system is SH-SY5Y cells. The experiment in a line: mitochondrial membrane potential (JC-10). The format is cell-based, human. The settings on record: 0.78 μM. As to the method:
Neurotoxin-like rotenone induces oxidative stress inside cells that might influence mitochondrial membrane potential (MMP). Maintaining unaffected MMP is essential for neuroprotection. In our study, we tested the effect of AR71 on MMP in the presence and absence of rotenone.
Next, the effect of AR71 (0.78 μM) when co-treated with rotenone was tested; 1 μM carbonyl cyanide m-chlorophenylhydrazone (CCCP) was used as a positive control.
The MMP was measured by a commercially available kit (Sigma Aldrich, MAK159, for live cells) that utilises a cationic, lipophilic dye JC-10. It allows for ratiometric analysis of mitochondrial membrane potential, where a shift from orange (λEX/λEM: 540 nm/590 nm) to green fluorescence (λEX/λEM: 490 nm/525 nm) is indicative of compromised mitochondria. For this assay, the SH-SY5Y cells (1 × 10^4 cells/well) were seeded in a black-sided clear bottom 96-well plate (Thermo Scientific Nunclon^TM Delta Surface no. 137101, Denmark) in a complete culture medium. First, to choose the optimal concentration of rotenone in this assay, a dose–response effect of rotenone (0.05, 0.5, 5, 50 μM) was studied. Next, the cells were pre-treated with AR71 (0.78 μM) for 1 h before rotenone stimulation (50 μM) for another 3 h. […] The positive control was carbonyl cyanide m-chlorophenylhydrazone (CCCP; 1 μM)—uncoupling agent on the proton gradient. After incubation, 50 μL/well of the JC-10 dye loading solution was added to each well with cells. The plate was incubated for 45 min in the incubator. Then, 50 μL/well of Assay Buffer B was added to each well, and the fluorescence was monitored immediately. The red/green fluorescence intensity ratio was used to calculate the results.

Data set [4] addresses hH1R. Further details: method as in PMID 36370200. The settings on record: cited from earlier work.

As usually defined, the IC50 is the midpoint of a concentration-inhibition curve. A high value points to weaker potency in that assay. One may read the Ki as the dissociation constant of the complex between target and ligand, obtained from inhibition or displacement. Regarding `COc1cc(/C=C/C(=O)c2ccc(OCCCN3CCCCC3)cc2)cc(OC)c1OC` [AR71, (E)-3-(3,4,5-trimethoxyphenyl)-1-(4-(3-(piperidin-1-yl)propoxy)phenyl)prop-2-en-1-one], in data set [1] (120 min incubation with HLMs), the “number of metabolites formed” value was “six”. Moreover, the “parent compound remaining unchanged” value in data set [1] (120 min incubation with HLMs) amounted to 85%; in data set [1] (120 min incubation with HLMs, listed as AR-71), 85.40%. For the same compound, in data set [1] (HLMs), the “metabolic stability” value was “rather metabolically stable”. Further, in data set [2] (1.56 and 3.12 μM, 48 h, did not persist after 72 h), the “effect on astrocyte viability at low concentrations” value is “statistically significant proliferation”. Further, the IC50 in data set [2] (2 h incubation) amounted to 41.3 µM; in data set [2] (24 h incubation), 20.2 µM; in data set [2] (48 h incubation), 12.5 µM; in data set [2] (72 h incubation), 9.69 µM. Moreover, the “effect on MMP of compound alone” value in data set [3] is reported as “did not affect mitochondrial membrane potential”. In addition, the “minimisation of loss of MMP compared with rotenone-treated cells” value in data set [3] (1 h pre-treatment, then rotenone 50 μM for 3 h) is recorded as 20%. Besides, in data set [4], the inhibition constant Ki was 2.7 µM and > 2.5 µM.
